Test results as given in ChEMBL document CHEMBL1770050, “Effect of carbohydrate amino group modifications on the cytotoxicity of glycosylated 2-phenyl-benzo[b]thiophenes and 2-phenyl-benzo[b]furans” (Bioorg Med Chem Lett, 2011).

Columns and labels:
MCF7 [1] = assay: Cytotoxicity against human MCF7 cells after 3 days by MTS assay; format: functional, cell-based; details: MCF7, 72 h
HT-29 [2] = assay: Cytotoxicity against human HT-29 cells after 3 days by MTS assay; format: functional, cell-based; details: HT-29, 72 h
HepG2 [3] = assay: Cytotoxicity against human HepG2 cells after 3 days by MTS assay; format: functional, cell-based; details: HepG2, 72 h
HepG2 [4] = assay: Cytotoxicity against human HepG2 cells assessed as cell viability at 25 uM after 3 days by MTS assay; format: functional; details: HepG2, 72 h, read-out: Activity
MCF7 [5] = assay: Cytotoxicity against human MCF7 cells assessed as cell viability at 25 uM after 3 days by MTS assay; format: functional; details: MCF7, 72 h, read-out: Activity
MCF7 [6] = assay: Cytotoxicity against human MCF7 cells at 25 µM after 3 days by MTS assay; details: MCF7, 72 h
HT-29 [7] = assay: Cytotoxicity against human HT-29 cells assessed as cell viability at 25 uM after 3 days by MTS assay; format: functional; details: HT-29, 72 h, read-out: Activity
Nucleic Acid = assay: Binding affinity to Sheared herring sperm DNA assessed as remaining displaced EtBr by fluorescent intercalator displacement assay; format: nucleic-acid assay; parameters: concentration or dose not given beside the values

Row | SMILES | IC50 (MCF7 [1]) | IC50 (HT-29 [2]) | IC50 (HepG2 [3]) | viability at 25 µM (HepG2 [4]) | viability at 25 µM (MCF7 [5]) | cell viability at 25 µM (MCF7 [6]) | viability at 25 µM (HT-29 [7]) | Activity (Nucleic Acid)
1 | CC(C)CCN(CCC(C)C)[C@H]1CC[C@H](OCC#Cc2c(-c3ccccc3)oc3ccccc23)O[C@H]1C | > 25 µM | > 25 µM | > 25 µM |  |  |  |  | 
2 | C[C@@H]1O[C@@H](OCC#Cc2c(-c3ccccc3)sc3ccccc23)CC[C@@H]1NCC#N | 10.5 µM | 10.8 µM | 18 µM |  |  |  |  | 
3 | C[C@@H]1O[C@@H](OCC#Cc2c(-c3ccccc3)sc3ccccc23)CC[C@@H]1NCc1ccccc1 | > 25 µM | 19 µM | > 25 µM |  |  |  |  | 
4 | COc1cc(CN[C@H]2CC[C@H](OCC#Cc3c(-c4ccccc4)oc4ccccc34)O[C@H]2C)cc(OC)c1OC |  | 8 µM | 11.3 µM | 7% | 30% | 30% | 6% | 
5 | C[C@@H]1O[C@@H](OCC#Cc2c(-c3ccccc3)oc3ccccc23)CC[C@@H]1N(C)C | 10.3 µM | 6.1 µM | 6.8 µM |  |  |  |  | 
6 | C[C@@H]1O[C@@H](OCC#Cc2c(-c3ccccc3)oc3ccccc23)CC[C@@H]1N |  |  |  | < 1% | < 1% |  | < 1% | 68.5%
7 | CC(C)CCN[C@H]1CC[C@H](OCC#Cc2c(-c3ccccc3)oc3ccccc23)O[C@H]1C | 11.3 µM | 6.6 µM | 13.6 µM |  |  |  |  | 
8 | CCCCN[C@H]1CC[C@H](OCC#Cc2c(-c3ccccc3)sc3ccccc23)O[C@H]1C | 10.2 µM | 7 µM | 18.6 µM |  |  |  |  | 
9 | CCCCN(CCCC)[C@H]1CC[C@H](OCC#Cc2c(-c3ccccc3)oc3ccccc23)O[C@H]1C | > 25 µM | > 25 µM | > 25 µM |  |  |  |  | 
10 | CCCCCCN[C@H]1CC[C@H](OCC#Cc2c(-c3ccccc3)sc3ccccc23)O[C@H]1C | 6.8 µM | 5.1 µM | 19.1 µM |  |  |  |  | 
11 | CCN(CC)[C@H]1CC[C@H](OCC#Cc2c(-c3ccccc3)oc3ccccc23)O[C@H]1C | 9.7 µM | 6.8 µM | 10.7 µM |  |  |  |  | 
12 | C[C@@H]1O[C@@H](OCC#Cc2c(-c3ccccc3)sc3ccccc23)CC[C@@H]1N(C)CC#N | 7.7 µM | 6.2 µM | 12.3 µM |  |  |  |  | 
13 | C[C@@H]1O[C@@H](OCC#Cc2c(-c3ccccc3)sc3ccccc23)CC[C@@H]1NCc1ccc(O)cc1 | 12 µM | 5.1 µM | 20.3 µM |  |  |  |  | 
14 | C[C@@H]1O[C@@H](OCC#Cc2c(-c3ccccc3)oc3ccccc23)CC[C@@H]1NCC1CCCCC1 | > 25 µM | 10.2 µM | > 25 µM |  |  |  |  | 
15 | C[C@@H]1O[C@@H](OCC#Cc2c(-c3ccccc3)oc3ccccc23)CC[C@@H]1NCc1ccc[nH]1 | 18.1 µM | 11.1 µM | 20.8 µM | < 1% | 14% |  | < 1% | 
16 | C[C@@H]1O[C@@H](OCC#Cc2c(-c3ccccc3)sc3ccccc23)CC[C@@H]1N(C)C | 8.2 µM | 3.3 µM | 10 µM |  |  |  |  | 
17 | CCN[C@H]1CC[C@H](OCC#Cc2c(-c3ccccc3)oc3ccccc23)O[C@H]1C | 9.2 µM | 5.8 µM | 6 µM |  |  |  |  | 26%
